These results are taken from US10358431B1, “Antimicrobials from an epigenetics based fungal metabolite screening program” (University of South Florida, priority 2015, dated 2019).

Data set [1] has as its system Leishmania donovani. The data set is described as follows: Infected macrophage model of the Leishmania donovani parasite. The class given is cell-based. Particulars: for IC50: read-out: L. donovani IC50.
In data set [2] the test system is macrophages.
The test system of data set [3] is MRSA. Description: Pure compound activity against MRSA (ESKAPE pathogens). The class given is cell-based, Staphylococcus aureus. To be noted: for IC50: pure compound.
For data set [4], the system named is MRSA. The data set is described as follows: MRSA drug wash-out study / MBC99. Format: cell-based, Staphylococcus aureus.

As usually defined, the IC50 is the midpoint of a concentration-inhibition curve.

LL-Z1272ε [Compound 6]: in data set [1], the “L. donovani IC50 (μM)” value is given as “neither phomopsichromin D (4) nor LL-Z1272ε (6) showed any activity”. Moreover, in data set [2], the “activity towards the macrophages” value is “neither phomopsichromin D (4) nor LL-Z1272ε (6) showed any activity”.
In the case of Phomopsichromin A [Compound 1], the IC50 came to 518 µM in data set [3] and 3 µM in data set [1].
Regarding Phomopsichromin B [Compound 2], the IC50 in data set [3] was 515 µM; in data set [1] it was 1.9 µM.
As to Phomopsichromin C [Compound 3], in data set [3], the “MIC against MRSA” value is 58 µM and the IC50 was 58 µM. Further, in data set [1], the 50% inhibitory concentration (IC50) is 0.67 µM. In addition, the “drug wash-out study: bactericidal or not” value in data set [4] is “bactericidal”.
Phomopsichromin D [Compound 4]: in data set [1], the “L. donovani IC50 (μM)” value is “neither phomopsichromin D (4) nor LL-Z1272ε (6) showed any activity”. In addition, the “activity towards the macrophages” value in data set [2] is reported as “neither phomopsichromin D (4) nor LL-Z1272ε (6) showed any activity”.
For Phomopsichromin E [Compound 5], the IC50 in data set [3] amounted to 515 µM; in data set [1] it was 0.8 µM.
Turning to gentamicin [reference compound], the “MRSA MBC99” value in data set [4] was determined as 20 µM.
